Several values for one entry are separate records, joined by “and”; a condition that tells them apart may be missing. Identical values can stand only once. Blank lines part the entries; values can stand above or below the molecule they belong to.
Tested on: 496974-208-R-J2-PDC complex spheroids, growth % test/control
Assay: Anticancer human tumor 496974-208-R-J2-PDC patient-derived pancreatic carcinoma cell line growth inhibition [CLK]
Settings: for viability, T/C: stronger effect = lower value
Source text: A high-throughput screen of multi-cell type tumor spheroids was designed to identify active combinations of […] and targeted small molecules. Complex spheroids include a stromal component modeled by human endothelial cells (HUVEC) and fibroblasts modeled by human mesenchymal stem cells (MSCs). The concentration ranges selected for each drug and investigational agent were based upon clinically achievable concentrations if the clinical Cmax of the agent was known.
Compounds. The drugs and investigational agents: cirtuvivint (SM08502; NSC835563), CC-671 (NSC850746), vemurafenib (NSC761431), tapotoclax (NSC804041), sotorasib (NSC818433), adagrasib (NSC831453), MRTX-1133 (NSC836407), BAY2416964 (NSC825713), copanlisib (NSC816437), inavolisib (NSC800729), abemaciclib (NSC768073), osimertinib (NSC779217), entinostat (NSC756642), eltanexor (KPT-8602, NSC794443), venetoclax (NSC766270), ceralasertib (NSC777638), bortezomib (NSC756655), olaparib (NSC753686), talazoparib (NSC767125), alisertib (NSC759677), peposertib (NSC802822), gemcitabine (NSC613327), 5-fluorouracil (NSC19893), SN-38 (NSC673596), oxaliplatin (NSC266046), paclitaxel (NSC125973), and doxorubicin (NSC123127), were obtained from the National Cancer Institute (NCI) Developmental Therapeutics Program Chemical Repository. The FDA-approved anticancer drug set is available from the Developmental Therapeutics Program at https://dtp.cancer.gov/organization/dscb/obtaining/available plates.htm. […] The stock solutions were prepared in dimethyl sulfoxide (DMSO, Sigma-Aldrich, St. Louis, MO, cat. D2650), except for the platinum complexes which were prepared in saline (Quality Biological, Gaithersburg, MD, cat. 114-055-101), at 800-fold the tested concentration and stored at -70 degrees C prior to their use. All drugs and investigational agents were tested over a range starting from a high concentration at or near the clinical Cmax and decreasing in half-log increments. If the clinical Cmax for an agent had not been determined, the highest concentration tested was 10 microM.
Cell Culture. All cells were maintained in an incubator at 37 degrees C and 5% CO2 with 95% humidity. The PDC lines were cultured according to standard operating procedures established by the NCI PDMR. Briefly, all PDCs were thawed and cultured in Matrigel-coated flasks prepared with a working solution of 1X Ham's F-12 nutrient mix, without supplementation (Invitrogen, Waltham, MA, cat. 11765054), 100 U/mL penicillin-streptomycin (Invitrogen, cat. 15140122), and 2.5% Matrigel (Corning Inc., Corning, NY, cat. 354248) for the first three passages. The 947758-054-R-J2-PDC line was cultured in 6B/Colon 1A media, which includes advanced DMEM/F-12 (Thermo Fisher Scientific, cat. 12634028), 10 mM HEPES (Thermo Fisher Scientific, cat. 15630080), 1X GlutaMAX supplement (Thermo Fisher Scientific, cat. 35050061), 0.1 mg/mL primocin (InvivoGen, cat. ant-pm-2), 10% defined fetal bovine serum, heat inactivated (HyClone Laboratories Inc., cat. SH30070.03HI), 1.25 mM N-Acetyl-L-cysteine (Sigma-Aldrich, cat. A9165), 10 mM nicotinamide (Sigma-Aldrich, cat. N0636), 1X B-27 supplement (Thermo Fisher Scientific, cat. 17504044), 1X N-2 supplement (Thermo Fisher Scientific, cat. 17502048), and 10 microM Y-27632 dihydrochloride (Tocris Bioscience, cat. 1254). The 876862-298-R-J1-PDC was cultured in 6E media, which includes all 6B/Colon 1A media components plus 50% L-WRN conditioned media (ATCC, cat. CRL-3276), 50 ng/mL recombinant human EGF recombinant protein (hEGF; Thermo Fisher Scientific, cat. PHG0311), 10 ng/mL recombinant human fibroblast growth factor 10 (hGFG-10; PeproTech, cat. 100-26), 1 ng/mL recombinant human fibroblast growth factor 2 (hFGF-2; PeproTech, cat. 100-18B), and 1 µM prostaglandin E2 (PGE2; Tocris, cat. 2296). The 227483-062-R1-J1-PDC line was cultured in Panc media, containing all 6E components except hFGF-2, with the addition of 500 nM SB-431542 (Selleckchem, cat. S1067) and 10 nM gastrin (Tocris, cat. 3006). […]
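Note: spheroids exposed to the drugs for 7 days before readout.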
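Throughout, for viability, T/C: 100% = DMSO vehicle control wells.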

- IC50 (curve of compound): 6.04 nM and 8.48 nM
SMILES: CCc1c2c(nc3ccc(O)cc13)-c1cc3c(c(=O)n1C2)COC(=O)[C@]3(O)CC
- viability, T/C (compound 0.00316 µM): 67.2% and 61.3%
- viability, T/C (compound 0.01 µM): 32.4% and 47.9%
- viability, T/C (compound 0.0316 µM): 25.7% and 35.4%
- viability, T/C (compound 0.1 µM): 17.4% and 23.2%
- viability, T/C (compound 0.316 µM): 9.88% and 12.9%
- viability, T/C (compound 1 µM): 2.2% and 3.2%

- IC50 (compound alone, run of 09/18/2023): 171 nM [middle of 11 runs]
SMILES: CN1CCN(c2cc(C(=O)Nc3cc4cc(-c5cnn(C)c5)ccc4cn3)ccn2)CC1
- viability, T/C (compound 0.0316 µM): 103% [middle of 12 runs]
- viability, T/C (compound 0.1 µM): 87.9% [middle of 12 runs]
- viability, T/C (compound 0.316 µM): 6.96% [middle of 11 runs]
- viability, T/C (compound 1 µM): 1.74% [middle of 12 runs]
- viability, T/C (compound 3.16 µM): 0.79% [middle of 12 runs]
- viability, T/C (compound 10 µM): 0.34% [middle of 8 runs]

- IC50 (compound alone, run of 09/19/2023): > 10000 nM
SMILES: CNC(=O)c1ccc(Nc2nc(OC3CCCC3)c3c(-c4ccc5nc(C)oc5c4)c[nH]c3n2)c(OC)c1
- viability, T/C (compound 0.0316 µM): 97.8% [middle of 7 runs]
- viability, T/C (compound 0.1 µM): 85.7% [middle of 10 runs]
- viability, T/C (compound 0.316 µM): 78.1% [middle of 10 runs]
- viability, T/C (compound 1 µM): 70.6% [middle of 10 runs]
- viability, T/C (compound 3.16 µM): 62.4% [middle of 10 runs]
- viability, T/C (compound 10 µM): 57.3% [middle of 10 runs]

- IC50 (curve of compound): 6380 nM and 4150 nM
SMILES: COC1C=CCC(C)C(C)S(=O)(=O)NC(=O)c2ccc3c(c2)N(CC2CCC21)CC1(CCCc2cc(Cl)ccc21)CO3 (stereo unspecified)
- viability, T/C (compound 0.0316 µM): 99.2% and 100%
- viability, T/C (compound 0.1 µM): 95.3% and 65.2%
- viability, T/C (compound 0.316 µM): 89.4% and 82.5%
- viability, T/C (compound 1 µM): 75.1% and 74.3%
- viability, T/C (compound 3.16 µM): 60.6% and 58.6%
- viability, T/C (compound 10 µM): 43.4% and 26%

- IC50 (curve of compound): 16.7 nM and 14.4 nM
SMILES: COc1c(OCCCN2CCOCC2)ccc2c3n(c(=NC(=O)c4cnc(N)nc4)nc12)CCN3
- viability, T/C (compound 0.00316 µM): 93.4% and 97.4%
- viability, T/C (compound 0.01 µM): 64.2% and 60%
- viability, T/C (compound 0.0316 µM): 32.8% and 28.6%
- viability, T/C (compound 0.1 µM): 9.98% and 14.7%
- viability, T/C (compound 0.316 µM): 7.88% and 8.03%
- viability, T/C (compound 1 µM): 3.01% and 3.54%

- IC50 (curve of compound): > 100 nM
SMILES: Cn1ncnc1[C@H]1c2n[nH]c(=O)c3cc(F)cc(c23)N[C@@H]1c1ccc(F)cc1
- viability, T/C (compound 0.000316 µM): 109% and 106%
- viability, T/C (compound 0.001 µM): 103% and 99.5%
- viability, T/C (compound 0.00316 µM): 90.4% and 101%
- viability, T/C (compound 0.01 µM): 95.2% and 99.5%
- viability, T/C (compound 0.0316 µM): 93.3% and 95.1%
- viability, T/C (compound 0.1 µM): 86% and 104%

- IC50 (curve of compound): 106 nM and 135 nM
SMILES: NC(=O)C(=Cn1cnc(-c2cc(C(F)(F)F)cc(C(F)(F)F)c2)n1)c1cncnc1
- viability, T/C (compound 0.00949 µM): 97.8% and 78.4%
- viability, T/C (compound 0.03 µM): 71.3% and 68.7%
- viability, T/C (compound 0.0949 µM): 57.4% and 59.5%
- viability, T/C (compound 0.3 µM): 29.5% and 32%
- viability, T/C (compound 0.949 µM): 16% and 23.8%
- viability, T/C (compound 3 µM): 11.6% and 13.4%

- IC50 (curve of compound): 4370 nM and 4160 nM
SMILES: Nc1ccccc1NC(=O)c1ccc(CNC(=O)OCc2cccnc2)cc1
- viability, T/C (compound 0.0316 µM): 104% and 112%
- viability, T/C (compound 0.1 µM): 86.3% and 98.7%
- viability, T/C (compound 0.316 µM): 85.9% and 86.6%
- viability, T/C (compound 1 µM): 77.5% and 72.4%
- viability, T/C (compound 3.16 µM): 74.1% and 77.9%
- viability, T/C (compound 10 µM): 0.53% and 0.83%

SMILES: Nc1ccn(C2OC(CO)C(O)C2(F)F)c(=O)n1 (stereo unspecified)
- viability, T/C (compound 0.0316 µM): 89.3% and 93.5%
- viability, T/C (compound 0.1 µM): 67.2% and 76.4%
- viability, T/C (compound 0.316 µM): 57.7% and 72.4%
- viability, T/C (compound 1 µM): 44.9% and 58%
- viability, T/C (compound 3.16 µM): 50.7% and 63.3%
- viability, T/C (compound 10 µM): 44.3% and 53.2%

- IC50 (curve of compound): > 10000 nM
SMILES: O=C(c1cc(Cc2n[nH]c(=O)c3ccccc23)ccc1F)N1CCN(C(=O)C2CC2)CC1
- viability, T/C (compound 0.0316 µM): 99.1%
- viability, T/C (compound 0.1 µM): 85.5%
- viability, T/C (compound 0.316 µM): 94.7%
- viability, T/C (compound 1 µM): 98.4%
- viability, T/C (compound 3.16 µM): 95.2%
- viability, T/C (compound 10 µM): 86.7%

- IC50 (curve of compound): 6830 nM and > 10000 nM
SMILES: O=c1[nH]cc(F)c(=O)[nH]1
- viability, T/C (compound 0.0316 µM): 114% and 115%
- viability, T/C (compound 0.1 µM): 103% and 95.1%
- viability, T/C (compound 0.316 µM): 101%
- viability, T/C (compound 1 µM): 78.4% and 79.6%
- viability, T/C (compound 3.16 µM): 55.1% and 71.4%
- viability, T/C (compound 10 µM): 47.6% and 53.4%

Reference: PubChem BioAssay AID2060615 (Molecular Pharmacology Branch, DTP, NCI, 2025)
